Read-outs that look alike come from different tables or passages of the source.
Key:
rat α4β2 nAChR subtype = target: T1, rat α4β2 nAChR subtype (Rattus norvegicus, UniProt P09483+P12390); test: Radioligand binding, [3H]nicotine, rat cortex membranes; conditions: [3H]nicotine 5 nM
T1 construct: The cerebral cortex was removed and placed in 20 volumes (weight:volume) of ice-cold preparative buffer; from tissue; host or cells: rat cerebral cortex membranes (female Sprague-Dawley)
Protocol: Preparation of Membranes from Rat Cortex: Rats (Female, Sprague-Dawley), weighing 150-250 g, were maintained on a 12 h light/dark cycle and were allowed free access to water and food supplied by PMI Nutrition International, Inc. Animals were anesthetized with 70% CO2, and then decapitated. Brains were removed and placed on an ice-cold platform. The cerebral cortex was removed and placed in 20 volumes (weight:volume) of ice-cold preparative buffer (137 mM NaCl, 10.7 mM KCl, 5.8 mM KH2PO4, 8 mM Na2HPO4, 20 mM HEPES (free acid), 5 mM iodoacetamide, 1.6 mM EDTA, pH 7.4); PMSF, dissolved in methanol to a final concentration of 100 μM, was added and the suspension was homogenized by Polytron. The homogenate was centrifuged at 18,000×g for 20 min at 4° C. and the resulting pellet was re-suspended in 20 volumes of ice-cold water. After 60 min incubation on ice, a new pellet was collected by centrifugation at 18,000×g for 20 min at 4° C. The final pellet was re-suspended in 10 volumes of buffer and stored at −20° C.
(§1) On the day of the assay, the frozen membranes were thawed and spun at 48,000×g for 20 min. The supernatant was decanted and discarded. The pellet was resuspended in Dulbecco's phosphate buffered saline (PBS, Life Technologies) pH 7.4 and homogenized with the Polytron for 6 seconds. Protein concentrations were determined using a Pierce BCA Protein Assay Kit, with bovine serum albumin as the standard (Pierce Chemical Company, Rockford, Ill.).
(§2) Membrane preparations (approximately 50 μg for human and 200-300 μg protein for rat α4β2) were incubated in PBS (50 μL and 100 μL respectively) in the presence of competitor compound (0.01 nM to 100 μM) and 5 nM [^3H]nicotine for 2-3 hours on ice. Incubation was terminated by rapid filtration on a multi-manifold tissue harvester (Brandel, Gaithersburg, Md.) using GF/B filters presoaked in 0.33% polyethyleneimine (w/v) to reduce non-specific binding. Tissue was rinsed 3 times in PBS, pH 7.4. Scintillation fluid was added to filters containing the washed tissue and allowed to equilibrate. Filters were then counted to determine radioactivity bound to the membranes by liquid scintillation counting (2200CA Tri-Carb LSC, Packard Instruments, 50% efficiency or Wallac Trilux 1450 MicroBeta, 40% efficiency, Perkin Elmer).
(§3) Data were expressed as disintegrations per minute (DPMs). Within each assay, each point had 2-3 replicates. The replicates for each point were averaged and plotted against the log of the drug concentration. IC50, which is the concentration of the compound that produces 50% inhibition of binding, was determined by least squares non-linear regression. Ki values were calculated using the Cheng-Prussof equation (1973): […]

human α4β2 nAChR subtype = target: T2, human α4β2 nAChR subtype (Homo sapiens, UniProt P17787+P43681); test: Radioligand binding, [3H]nicotine, membranes from SH-EP1/human α4β2 clonal cells; conditions: [3H]nicotine 5 nM, SH-EP1/human α4β2 cell membranes
T2 construct: expressed in transfected cells; host or cells: SH-EP1 clonal cells expressing human α4β2
T2 sequence (P43681 29-627 limits assumed): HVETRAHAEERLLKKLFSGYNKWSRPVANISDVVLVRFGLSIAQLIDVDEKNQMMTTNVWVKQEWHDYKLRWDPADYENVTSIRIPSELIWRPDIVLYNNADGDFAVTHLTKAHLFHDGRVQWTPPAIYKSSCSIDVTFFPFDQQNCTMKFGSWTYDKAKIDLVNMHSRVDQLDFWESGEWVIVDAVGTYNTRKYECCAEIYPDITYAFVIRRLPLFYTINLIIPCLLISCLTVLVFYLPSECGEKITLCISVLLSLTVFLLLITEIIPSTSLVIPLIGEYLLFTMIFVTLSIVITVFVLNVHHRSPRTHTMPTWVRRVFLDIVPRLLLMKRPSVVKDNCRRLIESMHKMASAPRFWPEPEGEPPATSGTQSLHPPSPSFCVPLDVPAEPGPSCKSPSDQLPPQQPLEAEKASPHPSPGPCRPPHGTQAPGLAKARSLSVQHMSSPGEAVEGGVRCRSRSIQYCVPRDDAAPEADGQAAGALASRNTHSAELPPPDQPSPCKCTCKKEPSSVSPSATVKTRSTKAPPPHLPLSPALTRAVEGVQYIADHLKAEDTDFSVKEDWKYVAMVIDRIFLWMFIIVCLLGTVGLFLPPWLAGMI
T2 sequence (P17787 26-502): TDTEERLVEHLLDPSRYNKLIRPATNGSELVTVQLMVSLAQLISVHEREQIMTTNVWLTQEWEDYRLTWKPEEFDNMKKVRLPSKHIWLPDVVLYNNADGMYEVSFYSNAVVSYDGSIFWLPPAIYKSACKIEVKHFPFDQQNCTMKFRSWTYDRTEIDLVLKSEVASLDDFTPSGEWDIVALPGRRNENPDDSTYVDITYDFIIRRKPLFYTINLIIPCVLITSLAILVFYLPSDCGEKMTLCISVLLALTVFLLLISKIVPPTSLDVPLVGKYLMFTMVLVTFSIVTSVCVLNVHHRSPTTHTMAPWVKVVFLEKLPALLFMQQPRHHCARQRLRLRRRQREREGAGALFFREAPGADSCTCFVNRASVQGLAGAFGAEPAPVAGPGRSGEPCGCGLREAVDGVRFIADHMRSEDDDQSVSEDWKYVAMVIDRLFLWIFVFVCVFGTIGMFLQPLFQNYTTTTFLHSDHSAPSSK
Protocol: Preparation of membranes from SH-EP1/human α4β2 clonal cells: Cell pellets from 40 150 mm culture dishes were pooled, and homogenized by Polytron (Kinematica GmbH, Switzerland) in 20 milliliters of ice-cold preparative buffer. The homogenate was centrifuged at 48,000 g for 20 minutes at 4° C. The resulting pellet was re-suspended in 20 mL of ice-cold preparative buffer and stored at −20° C.
as §1, §2, §3

α7 nAChR subtype = target: T3, α7 nAChR subtype (Rattus norvegicus, UniProt Q05941); test: Radioligand binding, [3H]MLA, rat hippocampus membranes; conditions: for inhibition at 5 µM: read-out: α7 high through-put screening (HTS) result
T3 construct: The hippocampus was removed and placed in 10 volumes (weight:volume) of ice-cold preparative buffer; from tissue; host or cells: rat hippocampus membranes (female Sprague-Dawley)
T3 sequence (Q05941 23-502): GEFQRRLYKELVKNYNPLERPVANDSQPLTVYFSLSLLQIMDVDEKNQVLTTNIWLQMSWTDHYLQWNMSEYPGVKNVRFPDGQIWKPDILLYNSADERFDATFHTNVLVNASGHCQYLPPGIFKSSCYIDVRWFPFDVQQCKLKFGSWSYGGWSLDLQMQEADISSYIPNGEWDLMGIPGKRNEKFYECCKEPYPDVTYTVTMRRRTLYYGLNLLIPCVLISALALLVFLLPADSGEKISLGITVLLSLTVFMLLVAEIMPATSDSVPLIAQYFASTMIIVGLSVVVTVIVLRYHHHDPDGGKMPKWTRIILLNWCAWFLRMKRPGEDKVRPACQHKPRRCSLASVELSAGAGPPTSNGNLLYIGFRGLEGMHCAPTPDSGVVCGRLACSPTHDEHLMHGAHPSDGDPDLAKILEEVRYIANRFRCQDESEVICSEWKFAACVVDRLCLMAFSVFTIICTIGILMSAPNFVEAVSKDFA
Protocol: Rats (female, Sprague-Dawley), weighing 150-250 g, were maintained on a 12 h light/dark cycle and were allowed free access to water and food supplied by PMI Nutrition International, Inc. Animals were anesthetized with 70% CO2, then decapitated. Brains were removed and placed on an ice-cold platform. The hippocampus was removed and placed in 10 volumes (weight:volume) of ice-cold preparative buffer (137 mM NaCl, 10.7 mM KCl, 5.8 mM KH2PO4, 8 mM Na2HPO4, 20 mM HEPES (free acid), 5 mM iodoacetamide, 1.6 mM EDTA, pH 7.4); PMSF, dissolved in methanol to a final concentration of 100 μM, was added and the tissue suspension was homogenized by Polytron. The homogenate was centrifuged at 18,000×g for 20 min at 4° C. and the resulting pellet was re-suspended in 10 volumes of ice-cold water. After 60 min incubation on ice, a new pellet was collected by centrifugation at 18,000×g for 20 min at 4° C. The final pellet was re-suspended in 10 volumes of buffer and stored at −20° C. On the day of the assay, tissue was thawed, centrifuged at 18,000×g for 20 min, and then re-suspended in ice-cold PBS (Dulbecco's Phosphate Buffered Saline, 138 mM NaCl, 2.67 mM KCl, 1.47 mM KH2PO4, 8.1 mM Na2HPO4, 0.9 mM CaCl2, 0.5 mM MgCl2, Invitrogen/Gibco, pH 7.4) to a final concentration of approximately 2 mg protein/mL. Protein was determined by the method of Lowry et al., J. Biol. Chem. 193: 265 (1951), using bovine serum albumin as the standard.
The binding of [^3H]MLA was measured using a modification of the methods of Davies et al., Neuropharmacol. 38: 679 (1999). [^3H]MLA (Specific Activity=25-35 Ci/mmol) was obtained from Tocris. The binding of [^3H]MLA was determined using a 2 h incubation at 21° C. Incubations were conducted in 48-well micro-titre plates and contained about 200 μg of protein per well in a final incubation volume of 300 μL. The incubation buffer was PBS and the final concentration of [^3H]MLA was 5 nM. The binding reaction was terminated by filtration of the protein containing bound ligand onto glass fiber filters (GF/B, Brandel) using a Brandel Tissue Harvester at room temperature. Filters were soaked in de-ionized water containing 0.33% polyethyleneimine to reduce non-specific binding. Each filter was washed with PBS (3×1 mL) at room temperature. Non-specific binding was determined by inclusion of 50 μM non-radioactive MLA in selected wells.
The inhibition of [^3H]MLA binding by test compounds was determined by including seven different concentrations of the test compound in selected wells. Each concentration was replicated in triplicate. IC50 values were estimated as the concentration of compound that inhibited 50 percent of specific [^3H]MLA binding. Inhibition constants (Ki values), reported in nM, were calculated from the IC50 values using the method of Cheng et al., Biochem. Pharmacol. 22: 3099-3108 (1973).

[1] = [3H]MLA 5 nM, rat hippocampus membranes, read-out: α7 Ki

T1 sequence (P09483 31-630): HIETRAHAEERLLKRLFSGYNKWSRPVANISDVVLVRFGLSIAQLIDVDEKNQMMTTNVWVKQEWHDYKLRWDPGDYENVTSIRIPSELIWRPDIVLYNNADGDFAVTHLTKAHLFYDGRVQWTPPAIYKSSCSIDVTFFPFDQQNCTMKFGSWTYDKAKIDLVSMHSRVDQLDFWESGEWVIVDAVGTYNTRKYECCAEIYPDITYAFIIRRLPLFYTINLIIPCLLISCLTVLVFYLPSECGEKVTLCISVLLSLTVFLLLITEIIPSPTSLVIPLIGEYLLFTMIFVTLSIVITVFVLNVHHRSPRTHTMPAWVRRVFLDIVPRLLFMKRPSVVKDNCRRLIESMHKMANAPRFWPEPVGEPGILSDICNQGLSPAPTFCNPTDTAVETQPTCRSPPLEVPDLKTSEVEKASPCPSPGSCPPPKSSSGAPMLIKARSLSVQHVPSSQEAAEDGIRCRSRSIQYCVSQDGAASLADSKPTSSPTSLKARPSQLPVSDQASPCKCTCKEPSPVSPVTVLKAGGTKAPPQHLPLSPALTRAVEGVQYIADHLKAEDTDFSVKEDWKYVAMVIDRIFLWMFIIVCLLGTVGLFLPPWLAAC
T1 sequence (P12390 25-500): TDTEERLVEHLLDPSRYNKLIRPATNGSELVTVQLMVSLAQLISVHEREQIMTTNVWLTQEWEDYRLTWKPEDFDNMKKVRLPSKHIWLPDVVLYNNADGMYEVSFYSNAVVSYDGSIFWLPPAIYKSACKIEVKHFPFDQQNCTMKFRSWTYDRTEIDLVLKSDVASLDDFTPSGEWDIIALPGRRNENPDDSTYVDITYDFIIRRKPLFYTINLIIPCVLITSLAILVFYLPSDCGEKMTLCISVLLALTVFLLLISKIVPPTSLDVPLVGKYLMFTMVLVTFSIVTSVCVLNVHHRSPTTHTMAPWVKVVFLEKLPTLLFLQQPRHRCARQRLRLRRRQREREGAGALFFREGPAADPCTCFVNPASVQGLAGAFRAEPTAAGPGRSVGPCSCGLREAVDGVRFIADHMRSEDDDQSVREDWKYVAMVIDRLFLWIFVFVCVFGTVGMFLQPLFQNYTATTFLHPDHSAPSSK

| SMILES | Ki (rat α4β2 nAChR subtype) [nM] | Ki (human α4β2 nAChR subtype) [nM] | inhibition at 5 µM (α7 nAChR subtype) [%] | Ki (α7 nAChR subtype; [1]) [nM] | Ki (α7 nAChR subtype; α7 Ki) [nM] |
| --- | --- | --- | --- | --- | --- |
| O=C(N1CC2CNCC(C2)C1)C1(O)CC1 [Example 10-72] | 75.9 | 225 | < 50 | – | – |
| CC(C)=CC(=O)N1CC2CNCC(C2)C1 [Example 10-60] | 25.9 | 13.8 | < 50 | – | – |
| O=C([C@@H]1C[C@H]1F)N1CC2CNCC2C1 (stereo partly drawn) [Example 10-37] | 12.2 | 4.9 | < 50 | – | – |
| O=C(CF)N1CC2CNCC2C1 (stereo not drawn) [Example 10-11] | 62.2 | 45.1 | < 50 | – | – |
| CC(C)(C)C(=O)N1CC2CNCC(C2)C1 [Example 10-57] | 112 | 126 | < 50 | – | – |
| CC1(C)C(C(=O)N2CC3CNCC3C2)C1(C)C (stereo not drawn) [Example 10-23] | 49.1 | 16.4 | < 50 | – | – |
| COC1CC(C(=O)N2CC3CNCC3C2)C1 (stereo not drawn) [Example 10-53] | 83.7 | 147 | < 50 | – | – |
| O=C(C1CC(F)(F)C1)N1CC2CNCC2C1 (stereo not drawn) [Example 10-54] | 20.3 | 5.7 | < 50 | – | – |
| O=C([C@H]1C[C@H]1F)N1CC2CNCC2C1 (stereo partly drawn) [Example 10-38] | 9.7 | 30 | < 50 | – | – |
| O=C(C(F)F)N1CC2CNCC2C1 (stereo not drawn) [Example 10-9] | 4.3 | 31.7 | < 50 | – | – |
| O=C1CCCC2=C1CC(C(=O)N1CC3CNCC3C1)CC2 (stereo not drawn) [Example 10-47] | 369 | 419 | < 50 | – | – |
| C[C@@H]1C(C(=O)N2CC3CNCC3C2)[C@@H]1C (stereo partly drawn) [Example 10-51] | 17.6 | 44.6 | – | 4790 | – |
| CCCC(=O)N1CC2CNCC(C2)C1 [Example 10-67] | 8.1 | 2.9 | – | 230 | – |
| O=C(C1CC=CC1)N1CC2CNCC(C2)C1 [Example 10-77] | 25.6 | 12.5 | – | 54 | – |
| COCC(=O)N1CC2CNCC2C1 (stereo not drawn) [Example 10-4] | 137 | 323 | – | 12400 | – |
| CC1(C(=O)N2CC3CNCC3C2)CC1 (stereo not drawn) [Example 10-20] | 136 | 53.9 | < 50 | – | – |
| O=C(CCF)N1CC2CNCC(C2)C1 [Example 10-80] | 13.8 | 9.5 | < 50 | – | – |
| CCCC(=O)N1CC2CNCC2C1 (stereo not drawn) [Example 10-15] | 112 | 48.8 | < 50 | – | – |
| O=C(C1CC2CCC1C2)N1CC2CNCC2C1 (stereo not drawn) [Example 10-42] | 139 | 64.6 | < 50 | – | – |

| SMILES | Ki (rat α4β2 nAChR subtype) [nM] | Ki (human α4β2 nAChR subtype) [nM] | inhibition at 5 µM (α7 nAChR subtype) [%] | Ki (α7 nAChR subtype; [1]) [nM] | Ki (α7 nAChR subtype; α7 Ki) [nM] |
| --- | --- | --- | --- | --- | --- |
| O=C(C1CC=CC1)N1CC2CNCC2C1 (stereo not drawn) [Example 10-7] | 28.4 | 72.2 | < 50 | – | – |
| CC1CC1C(=O)N1CC2CNCC(C2)C1 (stereo not drawn) [Example 10-71] | 1.4 | 1 | – | 78.7 | – |
| O=C(C1CC2C=CC1C2)N1CC2CNCC2C1 (stereo not drawn) [Example 10-43] | 34 | 15.8 | < 50 | – | – |
| O=C(C1CCCC1)N1CC2CNCC(C2)C1 [Example 10-86] | 26.6 | 20.2 | – | 211 | – |
| O=C([C@H]1C[C@@H]1F)N1CC2CNCC(C2)C1 [Example 10-79] | 4.1 | 2 | – | – | 961 |
| NC(=O)CC(=O)N1CC2CNCC2C1 (stereo not drawn) [Example 10-12] | 1390 | 746 | < 50 | – | – |
| O=C(C1CCC1)N1CC2CNCC2C1 (stereo not drawn) [Example 10-25] | 12.5 | 5.8 | < 50 | – | – |
| O=C(C1CC1)N1CC2CNCC(C2)C1 [Example 10-56] | 2.8 | 0.4 | – | 95.7 | – |
| O=C([C@@H]1C[C@H]1F)N1CC2CNCC(C2)C1 [Example 10-88] | 1.8 | 1.4 | – | – | 243 |
| N#CC1(C(=O)N2CC3CNCC(C3)C2)CC1 [Example 10-74] | 4840 | 1340 | < 50 | – | – |
| O=C([C@@H]1C[C@@H]1F)N1CC2CNCC2C1 (stereo partly drawn) [Example 10-39] | 6.6 | 3.8 | < 50 | – | – |
| O=C(CC1CC1)N1CC2CNCC2C1 (stereo not drawn) [Example 10-34] | 62.7 | 105 | < 50 | – | – |
| O=C(CS(=O)(=O)c1ccccc1)N1CC2CNCC(C2)C1 [Example 10-84] | 959 | 598 | < 50 | – | – |
| O=C(C1CCCC1)N1CC2CNCC2C1 (stereo not drawn) [Example 10-3] | 27.7 | 29.6 | < 50 | – | – |
| CCC(=O)N1CC2CNCC(C2)C1 [Example 10-63] | 12.1 | 10.4 | – | 795 | – |
| CC1CC1C(=O)N1CC2CNCC2C1 (stereo not drawn) [Example 10-21] | 4.1 | 4.2 | < 50 | – | – |
| O=C(C1CCC[C@H]1O)N1CC2CNCC(C2)C1 (stereo partly drawn) [Example 10-96] | 776 | 731 | < 50 | – | – |
| O=C(C1CC1)N1CC2CNCC2C1 (stereo not drawn) [Example 10-2] | 17.3 | 1.8 | – | 919 | – |
| O=C([C@H]1C[C@@H]1F)N1CC2CNCC(C2)C1 [Example 10-87] | 11.4 | 5.2 | – | – | 592 |

From patent publication US20110071180A1, “SUB-TYPE SELECTIVE AMIDES OF DIAZABICYCLOALKANES” (Targacept, Inc., priority 2008, published 2011)
